Assay results from US4455292A, “Radiological contrast composition and methods” (Board of Regents, the University of Texas System, priority 1982, dated 1984).

How the values were obtained:
human brain hexokinase [1] = molecular target: T1, human brain hexokinase (Homo sapiens, UniProt P19367); details: read-out: Km for glucose utilization by brain hexokinase, Michaelis constant; cited from earlier work
T1 sequence (P19367 1-917): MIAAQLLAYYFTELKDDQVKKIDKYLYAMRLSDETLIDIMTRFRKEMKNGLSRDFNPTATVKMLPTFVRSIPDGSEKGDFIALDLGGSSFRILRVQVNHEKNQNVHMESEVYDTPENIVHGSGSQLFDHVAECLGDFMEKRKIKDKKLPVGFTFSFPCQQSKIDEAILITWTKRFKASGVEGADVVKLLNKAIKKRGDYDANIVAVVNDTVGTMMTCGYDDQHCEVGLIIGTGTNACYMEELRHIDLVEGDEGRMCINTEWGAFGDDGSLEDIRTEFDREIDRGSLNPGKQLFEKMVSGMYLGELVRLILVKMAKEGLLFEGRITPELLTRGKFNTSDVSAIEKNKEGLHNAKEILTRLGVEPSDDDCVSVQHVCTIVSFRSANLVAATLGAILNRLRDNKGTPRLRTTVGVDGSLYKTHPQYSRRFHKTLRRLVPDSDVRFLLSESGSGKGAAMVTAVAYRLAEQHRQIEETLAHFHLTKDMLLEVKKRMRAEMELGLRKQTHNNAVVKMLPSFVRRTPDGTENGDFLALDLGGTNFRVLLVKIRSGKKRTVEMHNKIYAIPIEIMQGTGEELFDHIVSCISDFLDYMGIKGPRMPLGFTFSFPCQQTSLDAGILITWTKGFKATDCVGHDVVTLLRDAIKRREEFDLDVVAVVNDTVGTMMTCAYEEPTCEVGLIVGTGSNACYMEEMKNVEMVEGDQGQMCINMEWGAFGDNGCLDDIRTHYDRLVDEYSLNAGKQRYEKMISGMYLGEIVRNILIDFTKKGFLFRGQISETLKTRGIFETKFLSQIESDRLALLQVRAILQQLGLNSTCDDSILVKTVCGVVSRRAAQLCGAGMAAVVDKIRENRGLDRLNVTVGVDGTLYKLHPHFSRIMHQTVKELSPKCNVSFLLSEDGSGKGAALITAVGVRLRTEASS

human brain hexokinase [2] = molecular target: T1, human brain hexokinase; test: Inhibition constant for human brain hexokinase; assay type: biochemical; design: from tissue; host or cells: human brain; details: with respect to human brain hexokinase; competitive with glucose
From the text: (§1) The appropriate amount of glucose to be combined with or to be coadministered with a selected iodo-benzamido-glucopyranose contrast agent can be determined by knowing the hexokinase inhibition constant (Ki) for a selected contrast agent. The ratio of the activity of an enzyme to its maximal activity (Vmax) in the presence of competitive inhibitors is given by the following formula: v/Vmax=[S]/([S]+Km(1+([I]/Ki)), where [S] is glucose concentration, [I] is inhibitor concentration, Km is the Michaelis constant for glucose utilization of hexokinase, and Ki is the inhibition constant for the contrast agent. With no inhibitor present, glucose utilization by human brain hexokinase is represented by a v/Vmax of 0.99 (the Km for glucose utilization by brain hexokinase is 0.05 mM, and typical spinal fluid contains 4 mM glucose).
In a routine myelographic procedure, 780 mM (300 mg I/ml) metrizamide is administered. Substituting this variable into the above Michaelis-Menten equation, one finds a v/Vmax of only 0.25. This value represents a significant reduction in glucose utilization. Even if the concentration of metrizamide were diluted tenfold by the time it reached the cerebral surfaces, a v/Vmax of only 0.77 is predicted. Reductions in glucose utilization ranging from 0.6 to 0.7 have been associated with varieties of stupor and coma in humans.

patients = details: cerebrospinal myelography patients; cited from earlier work
human brain hexokinase [3] = molecular target: T1, human brain hexokinase; test: Calculated glucose utilization by brain hexokinase (v/Vmax, Michaelis-Menten equation with competitive inhibitor); design: from tissue; host or cells: human brain
From the text: as §1
In a routine myelographic procedure, 780 mM (300 mg I/ml) metrizamide is administered. Substituting this variable into the above Michaelis-Menten equation, one finds a v/Vmax of only 0.25. […]
However because metrizamide is a relatively weak competitive inhibitor of glucose, a small increase in glucose concentration can restore hexokinase-glucose utilization to an effective level. […] By solving for [S] it is calculated that an initial concentration of about 100 mM glucose is needed to counteract the effects of an intrathecal injection of 780 mM metrizamide. […]

[4] = reconstituted according to certain directions, at body temperature; cited from earlier work
Rat Brain Hexokinase = test: Competitive inhibition of rat brain hexokinase; assay type: biochemical; details: J. Neurochemistry 37: 1000 (1981)
From the text: Rather than relying on indirect manipulative steps to avoid contrast agent diffusion to brain, there is a need for an inexpensive, reliable, direct mechanism to avoid central nervous system complications induced by the iodo-benzamido-glucopyranose x-ray contrast agents. Following intense pharmacological research into the biochemical activity of the contrast agents, typified by metrizamide, Applicant has discovered that such compounds interfere with glycolysis metabolism in the brain. […] This interference with the utilization of glucose, which normally serves as the obligatory energy source in the brain, may explain some of the depressive effects of intrathecally administered metrizamide and related compounds.

Row | Ki (human brain hexokinase [2]) | v/Vmax (glucose utilization) (human brain hexokinase [3]; 780 mM (300 mg I/ml) metrizamide, routine myelographic procedure, typical spinal fluid 4 mM glucose) | v/Vmax (glucose utilization) (human brain hexokinase [3]; metrizamide concentration diluted tenfold by the time it reaches the cerebral surfaces) | SMILES | Km (human brain hexokinase [1]) | fraction of patients treated with temporary confusional state and EEG deterioration (patients) | specific gravity [4] | mode of hexokinase inhibition (Rat Brain Hexokinase)
1 |  |  |  | OC[C@H]1OC(O)[C@H](O)[C@@H](O)[C@@H]1O (stereo partly shown) [glucose] | 50 µM |  |  | 
2 | 2.5 mM | 0.25 | 0.77 | CC(=O)Nc1c(I)c(C(=O)N[C@H]2C(O)O[C@H](CO)[C@@H](O)[C@@H]2O)c(I)c(N(C)C(C)=O)c1I (stereo partly drawn) [metrizamide, 2-[3-Acetamido-2,4,6-triiodo-5-(N-methylacetamido)benzamido]-2-deoxy-D-glucopyranose] |  | about one-third | 1.184 | competes with glucose to inhibit hexokinase activity
